pIC50: −log10 of the molar value.

The target of one data set is T1, mouse CMKLR1 (Mus musculus, UniProt P97468).
T1 construct: expressed in transfected cells; host or cells: L1.2 cells
T1 sequence (P97468 1-371): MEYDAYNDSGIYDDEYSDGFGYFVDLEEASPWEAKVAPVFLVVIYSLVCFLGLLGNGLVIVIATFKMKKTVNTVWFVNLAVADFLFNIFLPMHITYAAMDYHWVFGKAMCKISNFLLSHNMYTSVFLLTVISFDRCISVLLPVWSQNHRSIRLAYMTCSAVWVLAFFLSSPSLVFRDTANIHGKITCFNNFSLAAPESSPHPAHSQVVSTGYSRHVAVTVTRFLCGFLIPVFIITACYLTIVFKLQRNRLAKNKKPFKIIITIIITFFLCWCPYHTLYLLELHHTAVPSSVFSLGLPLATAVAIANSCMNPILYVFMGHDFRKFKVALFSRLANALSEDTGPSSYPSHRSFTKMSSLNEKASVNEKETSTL
The data set can be described thus: Inhibition of chemerin-triggered mouse CMKLR1/L1.2 cell migration. Type of data set: cell-based. Particulars: 1 nM chemerin. The procedure:
2-(alpha-Naphthoyl)ethyltrimethyl ammonium iodide (aNETA) was tested for inhibition of chemerin-triggered mouse CMKLR1/L1.2 cell migration. mCMKLR1/L1.2 ctx and 1 nM chemerin were used. The assay was performed in 0.5% BSA, buffer (10% FBS), or 100% human serum.

For data set [1], the target named is T2, CXCR4 (Homo sapiens, UniProt P61073).
T2 construct: endogenous in cells; host or cells: MOLT-4 (human T-cell line)
The data set can be described thus: CXCR4-dependent MOLT-4 migration to CXCL12. The class given is cell-based. To be noted: MOLT4 human T-cell line; 1 nM CXCL12. The protocol: MOLT4 cell ctx (human T-cell line) and 1 nM CXCL12 were used.

In the next data set the target is T3, CCR9 (Homo sapiens, UniProt P51686).
T3 construct: endogenous in cells; host or cells: MOLT-4 (human T-cell line)
T3 sequence (P51686 1-369): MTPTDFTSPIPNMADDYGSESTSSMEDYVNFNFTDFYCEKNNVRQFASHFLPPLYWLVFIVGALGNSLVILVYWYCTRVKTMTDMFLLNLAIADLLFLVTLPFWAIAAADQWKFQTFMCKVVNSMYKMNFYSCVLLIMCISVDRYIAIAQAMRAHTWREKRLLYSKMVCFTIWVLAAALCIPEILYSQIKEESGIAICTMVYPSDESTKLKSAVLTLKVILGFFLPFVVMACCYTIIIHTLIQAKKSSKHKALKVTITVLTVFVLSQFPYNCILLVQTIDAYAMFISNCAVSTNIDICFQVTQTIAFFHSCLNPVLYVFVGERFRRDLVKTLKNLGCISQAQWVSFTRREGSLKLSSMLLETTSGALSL
The data set can be described thus: CCR9-dependent MOLT-4 migration to CCL25. The class given is cell-based. To be noted: MOLT4 human T-cell line; 250 nM TECK. The protocol:
MOLT4 cell ctx (human T-cell line) and 250 nM TECK were used.

For data set [2], the target named is T4, CXCR4 (Mus musculus, UniProt P70658).
T4 construct: endogenous in cells; host or cells: mouse splenocytes
The data set can be described thus: CXCR4-dependent mouse splenocyte migration to CXCL12. Particulars: 100 nM CXCL12. The class given is cell-based. The procedure:
Splenocyte ctx and 100 nM CXCL12 were used.

A further data set has as its target T5, CCR7 (Mus musculus, UniProt P47774).
T5 construct: endogenous in cells; host or cells: mouse splenocytes
T5 sequence (P47774 25-378): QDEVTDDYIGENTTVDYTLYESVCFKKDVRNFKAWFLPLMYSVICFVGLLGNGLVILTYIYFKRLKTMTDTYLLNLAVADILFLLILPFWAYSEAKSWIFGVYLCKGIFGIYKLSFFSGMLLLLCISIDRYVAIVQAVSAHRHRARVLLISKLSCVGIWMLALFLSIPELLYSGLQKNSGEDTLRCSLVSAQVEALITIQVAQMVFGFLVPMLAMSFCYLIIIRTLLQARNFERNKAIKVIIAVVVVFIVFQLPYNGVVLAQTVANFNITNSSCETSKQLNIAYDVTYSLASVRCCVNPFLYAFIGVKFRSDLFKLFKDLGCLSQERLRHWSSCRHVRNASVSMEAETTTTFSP
The data set can be described thus: CCR7-dependent mouse splenocyte migration to CCL19. Particulars: 100 nM CCL19. Type of data set: cell-based. The procedure: Splenocyte ctx and 100 nM CCL19 were used.

Another data set addresses T6, FPR (Mus musculus, UniProt P33766).
T6 construct: endogenous in cells; host or cells: mouse bone-marrow neutrophils
T6 sequence (P33766 1-364): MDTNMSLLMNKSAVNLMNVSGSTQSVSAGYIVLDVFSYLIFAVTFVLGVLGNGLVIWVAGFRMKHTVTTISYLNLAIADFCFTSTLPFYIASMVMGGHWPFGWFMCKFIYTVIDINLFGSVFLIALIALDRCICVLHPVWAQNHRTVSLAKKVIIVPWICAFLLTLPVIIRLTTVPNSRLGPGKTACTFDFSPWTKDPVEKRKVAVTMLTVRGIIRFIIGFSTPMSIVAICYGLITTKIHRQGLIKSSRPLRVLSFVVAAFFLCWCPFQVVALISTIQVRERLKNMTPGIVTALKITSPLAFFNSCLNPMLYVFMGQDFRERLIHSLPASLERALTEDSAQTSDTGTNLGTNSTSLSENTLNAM
The data set can be described thus: FPR-dependent mouse BM neutrophil chemotaxis to fMLP. Type of data set: cell-based. To be noted: 100 nM fMLP. The protocol: Neutrophil ctx and 100 nM fMLP were used.

The target in the next data set is T7, C5aR (Mus musculus, UniProt P30993).
T7 construct: endogenous in cells; host or cells: mouse bone-marrow neutrophils
T7 sequence (P30993 1-351): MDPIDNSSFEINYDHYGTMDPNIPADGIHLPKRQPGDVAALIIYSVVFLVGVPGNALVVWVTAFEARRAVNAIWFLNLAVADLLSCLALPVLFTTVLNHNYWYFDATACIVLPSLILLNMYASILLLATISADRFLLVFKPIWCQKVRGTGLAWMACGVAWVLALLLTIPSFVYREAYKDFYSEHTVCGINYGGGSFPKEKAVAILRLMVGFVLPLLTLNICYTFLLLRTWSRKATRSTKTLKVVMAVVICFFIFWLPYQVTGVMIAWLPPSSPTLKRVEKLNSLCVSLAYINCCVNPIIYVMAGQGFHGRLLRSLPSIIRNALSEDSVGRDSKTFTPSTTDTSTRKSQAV
The data set can be described thus: C5aR-dependent mouse BM neutrophil chemotaxis to C5a. To be noted: 100 nM C5a. The class given is cell-based. The procedure: Neutrophil ctx and 100 nM C5a were used.

Data set [3] relates to huCMKLR1/βARR CHO, huCMKLR1/L1.2 cell lines and splenocytes. The data set can be described thus: In vitro cytotoxicity, annexin V FITC / propidium iodide assay. Type of data set: cell-based. To be noted: 90 minute incubation at 37° C., huCMKLR1/L1.2, splenocytes.
Procedure: The in vitro cytotoxicity of aNETA can be determined with an annexin V FITC assay kit. […] The analysis can be performed with a FITC-conjugated annexin-V, which has a strong affinity for extracellular phosphatidylserines, and the fluorescent intercalating agent propidium iodide (PI).
With reference to FIG. 11, cell lines (huCMKLR1/βARR CHO and huCMKLR1/L1.2) and splenocytes were used. aNETA was tested with 90 minute incubation at 37° C.
The test system of data set [4] is experimental autoimmune encephalomyelitis (EAE). The data set can be described thus: Clinical EAE in vivo (MOG 35-55 induced). To be noted: mouse; for Onset of EAE / Animals that developed EAE (disease incidence): subcutaneous; for Onset of EAE: 10% captisol.
For data set [5], the system named is leukocyte infiltration of CNS in EAE. The data set can be described thus: Leukocyte infiltration of CNS in EAE. The class given is in vivo, mouse. To be noted: EAE mice.
Data set [6] deals with T8, huCMKLR1 (Homo sapiens, UniProt Q99788).
T8 sequence (Q99788 1-373): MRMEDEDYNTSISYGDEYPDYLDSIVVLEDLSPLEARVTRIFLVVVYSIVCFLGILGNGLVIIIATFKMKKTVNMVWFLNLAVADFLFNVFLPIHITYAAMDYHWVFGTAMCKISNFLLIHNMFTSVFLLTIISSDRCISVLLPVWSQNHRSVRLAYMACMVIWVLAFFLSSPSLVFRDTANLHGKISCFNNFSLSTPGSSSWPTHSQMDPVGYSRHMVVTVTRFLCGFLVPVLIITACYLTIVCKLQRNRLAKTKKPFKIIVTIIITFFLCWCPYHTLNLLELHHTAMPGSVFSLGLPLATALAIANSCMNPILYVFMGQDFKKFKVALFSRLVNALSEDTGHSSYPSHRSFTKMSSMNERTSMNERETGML
The data set can be described thus: Inhibition of chemerin-triggered huCMKLR1 association with beta-arrestin2 (PathHunter CHO-K1 enzyme fragment complementation). Type of data set: cell-based. The arrangement: host or cells: CHO-K1. The text has this:
With reference to FIG. 1, early event in receptor internalization is ligand-triggered association with beta-arrestin2. This process turns off receptor signaling. Enzyme complementation can be used to measure CMKLR1 association with beta-arrestin2. In this assay β-Galactosidase is split into two complementary enzyme fragments, one is attached to CMKLR1, the other to beta-arrestin2. If ligand interaction with CMKLR1 promotes its association with β-arrestin2, the enzyme fragments join and become active. An assay, such as PathHunter® CHO-K1 CMKLR1 β-Arrestin GPCR Assays (DiscoverX, Inc., Fremont, Calif.) can provide a method for monitoring activation of the CMKLR1 GPCR receptor through arrestin recruitment in live cells. CMKLR1 cells are engineered to co-express a ProLink (PK)-tagged GPCR and the Enzyme Acceptor (EA)-tagged β-Arrestin fusion proteins. Upon GPCR activation, the two enzyme fragments are brought together, forming an active β-Gal enzyme through Enzyme Fragment Complementation (EFC). A LOPAC (Library of Pharmacologically Active Compounds) library (Sigma-Aldrich, St. Louis, Mo.) was screened for inhibition of chemerin-triggered […]1 association with βARR. Three hits were obtained from a primary screen of LOPAC library. […] The assay was performed in both buffer (10% FBS) or 100% human serum.

Data set [7] addresses T8, huCMKLR1. The data set can be described thus: Inhibition of chemerin-triggered human CMKLR1/L1.2 cell migration. The class given is cell-based. The arrangement: expressed in transfected cells; host or cells: L1.2 cells. To be noted: 1 nM chemerin. The procedure: 2-(alpha-Naphthoyl)ethyltrimethyl ammonium iodide (aNETA) was tested for inhibition of chemerin-triggered human CMKLR1/L1.2 cell migration. huCMKLR1/L1.2 ctx and 1 nM chemerin were used. The assay was performed in 0.5% BSA, buffer (10% FBS), or 100% human serum.

T4 sequence (P70658 whole entry): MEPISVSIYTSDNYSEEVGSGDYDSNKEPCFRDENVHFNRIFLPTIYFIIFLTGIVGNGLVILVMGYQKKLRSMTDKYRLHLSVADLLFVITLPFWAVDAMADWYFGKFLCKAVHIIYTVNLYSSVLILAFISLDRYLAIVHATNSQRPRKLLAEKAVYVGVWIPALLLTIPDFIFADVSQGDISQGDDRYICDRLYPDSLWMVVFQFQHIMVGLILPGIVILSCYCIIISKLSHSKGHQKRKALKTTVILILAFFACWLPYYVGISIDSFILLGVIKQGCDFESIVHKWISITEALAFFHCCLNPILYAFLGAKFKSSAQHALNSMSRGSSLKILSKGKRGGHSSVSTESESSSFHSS
T2 sequence (P61073 whole entry): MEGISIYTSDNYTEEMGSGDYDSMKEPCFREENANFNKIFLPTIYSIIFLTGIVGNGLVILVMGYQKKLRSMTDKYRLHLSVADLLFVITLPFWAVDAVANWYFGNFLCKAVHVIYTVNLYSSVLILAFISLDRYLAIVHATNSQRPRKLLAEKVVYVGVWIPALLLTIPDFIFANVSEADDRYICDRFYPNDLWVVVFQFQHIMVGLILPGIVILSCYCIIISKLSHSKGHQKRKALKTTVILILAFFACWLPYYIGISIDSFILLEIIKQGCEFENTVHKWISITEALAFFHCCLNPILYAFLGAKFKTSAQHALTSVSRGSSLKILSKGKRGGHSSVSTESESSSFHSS

On to `C[N+](C)(C)CCC(=O)c1cccc2ccccc12.[I-]` [aNETA, 2-(alpha-naphthoyl)ethyltrimethyl ammonium iodide], for which the negative logarithm of the IC50 (pIC50) was 5.02 on mouse CMKLR1 (0.5% BSA); 5.92 against mouse CMKLR1 (100% human serum); 5.96 against mouse CMKLR1 (buffer (10% FBS)); 6.21 on huCMKLR1 [6] (100% human serum, huCMKLR1/βARR CHO cells, 7 nM chemerin, read-out: IC50, inhibition of chemerin-triggered huCMKLR1 association with βARR); 6.46 on huCMKLR1 [6] (buffer (10% FBS), huCMKLR1/βARR CHO cells, 7 nM chemerin, read-out: IC50, inhibition of chemerin-triggered huCMKLR1 association with βARR); around 6.46 at huCMKLR1 [6] (in vitro cell-based bioassay, read-out: IC50, inhibition of chemerin mediated beta-arrestin2 association with CMKLR1). Also, the pIC50 on huCMKLR1 [7] (0.5% BSA) is 5.92; on huCMKLR1 [7] (100% human serum) it was 5.89; on huCMKLR1 [7] (buffer (10% FBS)), 5.92. For the same compound, the “Inhibition of CXCR4-dependent MOLT-4 migration to CXCL12” value on CXCR4 [1] was “does not inhibit”. Moreover, at CCR9, the “Inhibition of CCR9-dependent MOLT-4 migration to CCL25” value is given as “does not inhibit”. For the same compound, the “Inhibition of CXCR4-dependent mouse splenocyte migration to CXCL12” value at CXCR4 [2] is recorded as “does not inhibit”. For the same compound, the “Inhibition of CCR7-dependent mouse splenocyte migration to CCL19” value at CCR7 is reported as “does not inhibit”. At FPR, the “Inhibition of FPR-dependent mouse BM neutrophil chemotaxis to fMLP” value is reported as “does not inhibit”. At C5aR, the “Inhibition of C5aR-dependent mouse BM neutrophil chemotaxis to C5a” value is listed as “does not inhibit”. The “In vitro cytotoxicity (annexin V / PI)” value in [3] is “does not appear to be acutely toxic”. The “Onset of EAE” value in data set [4] (1 mg/kg daily) worked out at 17.8 days post-immunization; in data set [4] (10 mg/kg daily), 26 days post-immunization. Further, the “Animals that developed EAE (disease incidence)” value is recorded as 19% in data set [4] (3 mg/kg daily, 3/16) and 7% in [4] (10 mg/kg daily, 1/16). For the same compound, the “Effect on onset of EAE” value in data set [4] (10 mg/kg s.c. daily for 8 days, then every other day) is reported as “significantly delayed”. The “Leukocyte infiltration of the CNS compared to vehicle” value in data set [5] (daily 10 mg/kg) was “fewer leukocytes present”. Also, in data set [5] (daily 10 mg/kg and 3 mg/mg), the “Leukocytes in the spleen compared to vehicle” value is reported as “more leukocytes present”.

For the origin of these results see patent publication US9265738B2, “Small molecule CMKLR1 antagonists in demyelinating disease” (The Board of Trustees of the Leland Stanford Junior …, priority 2012, dated 2016).
